As usually defined, the IC50 is the concentration at which inhibition is half-maximal. As a reminder, the solubility is the dissolved amount per volume that the medium holds.

Data on 26 molecules can be found in patent US6680311B1, “Cryptophycin compounds” (Eli Lilly and Company, priority 1996, dated 2004).

Converted amounts (≈) assume the structure as drawn. Structures can show the parent of a compound that is named as a salt. Where two headings read alike, the source gives them in different places.

The test system of data set [1] is GC3 human colon carcinoma cells. The data set can be described thus: GC3 human colon carcinoma screen (MTT). In kind it is cell-based. As to the method:
Selected wells of a 96 well plate were seeded with GC3 human colon carcinoma cells ([…] cells in 100 μl assay medium/well) twenty four hours prior to test compound addition. Cell free assay medium was added to other select wells of the 96 well plate.
The test compound was stored in an amber bottle prior to testing. Fresh dimethylsulfoxide stock solution (200 μg/ml) was prepared immediately prior to preparation of test sample dilutions in phosphate-buffered saline (PBS). A dilution of 1:20 dimethylsulfoxide solution in PBS was prepared such that the final concentration was 10 ug/ml. Serial 1:3 dilutions using PBS (0.5 ml previous sample of 1 ml PBS) were prepared.
A 10 ul sample of each dilution of test compound was added in triplicate to wells of GC3 plates. The plates were incubated for 72 hours at about 37° C. A 10 μl sample of stock 3-[4,5-[…]]-2,5-diphenyltetrazolium bromide salt (“MTT” 5 mg/ml in PBS) was added to each well. The plates were incubated for about an hour at 37°. The plates were centrifuged, media was decanted from the wells and 100 μl acid-isopropanol (0.04 N HCl in isopropanol) was added to each well. The plate was read within one hour using a test wavelength of 570 nm (SpectraMax reader).

A short description of data set [2]: Solubility in excipient / parenteral vehicles. As to conditions: Comparative solubility. Type of data set: physicochemical.
Data set [3] has as its system Aortic smooth muscle (A-10) cells. Description: Effects on the cytoskeleton (immunofluorescence). Type of data set: cell-based, rat. The conditions noted are these: 2 μM, 24 hours. As to the method: (§1) A-10 cells are grown to near-confluency on glass coverslips in BME/10% FBS. Compounds in PBS are added to the indicated final concentrations and cells are incubated for an additional 24 hours. For the staining of microtubules and intermediate filaments, the cells are fixed with cold methanol and incubated with PBS containing 10% calf serum to block nonspecific binding sites. Cells are then incubated at 37° C. for 60 min. With either monoclonal anti-β-tubulin or with monoclonal anti-vimentin at dilutions recommended by the manufacturer. Bound primary antibodies are subsequently visualized by a 45 minute incubation with fluorescein-conjugated rabbit antimouse IgG. The coverslips are mounted on microscope slides and the fluorescence patterns are examined and photographed using a Zeiss Photomicroscope Ill equipped with epifluorescence optics for fluorescein. […] PBS containing 100 nM TRITC-phalloidin is then added and the mixture is allowed to incubate for 45 min. At 37° C. The cells are washed rapidly with PBS before the coverslips are mounted and immediately photographed as described above.
After 24 hours, microtubules and vimentin intermediate filaments are visualized by indirect immunofluorescence and microfilaments are stained using TRITC-phalloidin. The morphological effects of each drug is examined. […]

A further data set concerns SKVLB1 cells. The data set can be described thus: Toxicity toward SKVLB1 cells (growth inhibition). In kind it is cell-based. As to conditions: Homo sapiens, inhibition of proliferation, P-glycoprotein over expressing, vinblastine-resistant sub-line.
For data set [4], the system named is A-10 cells. Description: Effects on taxol-stabilized microtubules. Type of data set: cell-based, rat. As to the method: as §1
A-10 cells are treated for 3 hours with 0 or 10 μM taxol before the addition of PBS, 100 nM vinbiastine or 10 nM cryptophycin compound. After 24 hours, microtubule organization is examined by immunofluorescence as described above. […] Similarly, microtubules pretreated with taxol are observed with cryptophycin treatment.

Data set [5] deals with A-10 cells. The data set can be described thus: Reversibility of microtubule depolymerization. Type of data set: cell-based, rat. The protocol: as §1
The cells are then washed and incubated in drug-free medium for periods of 1 hour or 24 hours. […] Cells are visualized for microtubule state after treatment with a cryptophycin compound of this invention at either 1 hour or 24 hours after removal of the cryptophycin compounds.

Where [6] appears, read: in vitro cytotoxicity, Gc3 tumor cell model, read-out: Gc3 IC50.
Setting [7] is: Homo sapiens, Colon carcinoma cell, 72 h, read-out: IC50 (GC3 assay).
Where [8] appears, read: Homo sapiens, Colon carcinoma cell, 72 h, read-out: GC3 IC50.

Consider `COc1ccc(C[C@H]2NC(=O)/C=C/C[C@@H]([C@H](C)[C@@H](O)[C@@H](Cl)c3ccccc3)OC(=O)[C@H](CC(C)C)OC(=O)C(C)(C)CNC2=O)cc1Cl` [1′, Cryptophycin 55], for which the IC50 in data set [1] (setting [6]) amounted to 0.065 nM.

For the molecule `COc1ccc(CC2NC(=O)C=CCC(C(C)C(OC(=O)CCC(=O)O)C(Cl)c3ccccc3)OC(=O)C(CC(C)C)OC(=O)C(C)(C)CNC2=O)cc1Cl` (centres unmarked) [5′, Cryptophycin 55 Succinate], the IC50 in data set [1] (setting [6]) was 31 nM.

On to `COc1ccc(CC2NC(=O)C=CCC(C(C)C(OC(=O)[C@H](N)Cc3ccc(OC)c(Cl)c3)C(Cl)c3ccccc3)OC(=O)C(CC(C)C)OC(=O)C(C)(C)CNC2=O)cc1Cl` (some centres unmarked) [11′, Cryptophycin 55 3-(3-Chloro-4-methoxyphenyl)-(D)-alaninate Hydrochloride Salt], for which the IC50 in data set [1] (setting [6]) worked out at 6.8 nM.

With `COc1ccc(CC2NC(=O)C=CCC(C(C)C(OC(=O)[C@@H](N)Cc3ccccc3)C(Cl)c3ccccc3)OC(=O)C(CC(C)C)OC(=O)C(C)(C)CNC2=O)cc1Cl` (some centres unmarked) [13′, Cryptophycin 55 (L)-Phenylalaninate Hydrochloride Salt], the half-inhibitory concentration (IC50) in data set [1] (setting [6]) was determined as 7 nM.

As to `COc1ccc(CC2NC(=O)C=CCC(C(C)C(OC(=O)[C@@H](N)Cc3c[nH]cn3)C(Cl)c3ccccc3)OC(=O)C(CC(C)C)OC(=O)C(C)(C)CNC2=O)cc1Cl` (some centres unmarked) [15′, Cryptophycin 55 (L)-Histidinate Dihydrochloride Salt], in data set [1] (setting [6]), the IC50 is 60 nM.

In the case of `COc1ccc(CC2NC(=O)C=CCC(C(C)C(OC(=O)C3CCCN3)C(Cl)c3ccccc3)OC(=O)C(CC(C)C)OC(=O)C(C)(C)CNC2=O)cc1Cl` (centres unmarked) [17′, Cryptophycin 55 (L)-Prolinate Hydrochloride Salt], the IC50 in data set [1] (setting [6]) came out at 3.6 nM.

`COc1ccc(CC2NC(=O)C=CCC(C(C)C(OC(=O)CN)C(Cl)c3ccccc3)OC(=O)C(CC(C)C)OC(=O)C(C)(C)CNC2=O)cc1Cl` (centres unmarked) [19′, Cryptophycin 55 Glycinate Hydrochloride Salt]: the IC50 in data set [1] (setting [6]) stood at 0.1 nM.

On to `COc1ccc(C[C@H]2NC(=O)/C=C/C[C@@H]([C@H](C)[C@@H](Br)[C@H](O)c3ccccc3)OC(=O)[C@H](CC(C)C)OC(=O)[C@H](C)CNC2=O)cc1Cl` [CRYPTOPHYCIN-138, Cryptophycin-138], for which the IC50 in data set [1] (setting [7]) was 30.8 nM.

Turning to `COc1ccc(C[C@H]2NC(=O)/C=C/C[C@@H]([C@H](C)[C@@H](Br)C(=O)c3ccccc3)OC(=O)[C@H](CC(C)C)OC(=O)[C@H](C)CNC2=O)cc1Cl` [CRYPTOPHYCIN-139, Cryptophycin-139], the IC50 in data set [1] (setting [7]) was 3.4 nM.

In the case of `COc1ccc(C[C@H]2NC(=O)/C=C/C[C@@H]([C@H](C)[C@@H](Cl)[C@@H](O)c3ccccc3)OC(=O)[C@H](CC(C)C)OC(=O)[C@H](C)CNC2=O)cc1Cl` [CRYPTOPHYCIN-140, Cryptophycin-140], the IC50 in data set [1] (setting [7]) was 863 nM.

With `COc1ccc(C[C@H]2NC(=O)/C=C/C[C@@H]([C@H](C)[C@@H](Cl)[C@H](O)c3ccccc3)OC(=O)[C@H](CC(C)C)OC(=O)[C@H](C)CNC2=O)cc1Cl` [CRYPTOPHYCIN-141, Cryptophycin-141], the IC50 in data set [1] (setting [7]) came to 795 nM.

Take `COc1ccc(C[C@H]2NC(=O)/C=C/C[C@@H]([C@H](C)[C@H](Cl)[C@H](O)c3ccccc3)OC(=O)[C@H](CC(C)C)OC(=O)[C@H](C)CNC2=O)cc1Cl` [CRYPTOPHYCIN-142]: the IC50 in data set [1] (setting [7]) is 1.1 nM.

On to `COc1ccc(C[C@H]2NC(=O)/C=C/C[C@@H]([C@H](C)[C@H](Cl)[C@@H](O)c3ccccc3)OC(=O)[C@H](CC(C)C)OC(=O)[C@H](C)CNC2=O)cc1Cl` [CRYPTOPHYCIN-143], for which, in data set [1] (setting [7]), the IC50 came out at 850 nM.

On to `COc1ccc(C[C@H]2NC(=O)/C=C/C[C@@H]([C@H](C)[C@H](Br)[C@H](O)c3ccccc3)OC(=O)[C@H](CC(C)C)OC(=O)[C@H](C)CNC2=O)cc1Cl` [CRYPTOPHYCIN-145, Cryptophycin-145], for which the IC50 in data set [1] (setting [7]) amounted to 0.015 nM.

`COc1ccc(C[C@H]2NC(=O)/C=C/C[C@@H]([C@H](C)[C@@H](O)[C@@H](Cl)c3ccccc3)OC(=O)[C@H](CC(C)C)OC(=O)C(C)(C)CNC2=O)cc1Cl` [Compound 1, cryptophycin 55]: in data set [1] (Homo sapiens, Colon carcinoma cell, in vitro cytotoxicity, 72 hours, MTT, read-out: GC3 IC50), the IC50 came to 0.065 nM. The solubility is below 1 µg/mL in data set [2] (aqueous with cosolvent or surfactant or cyclodextrin, vehicle 1); 2.6 µg/mL (≈ 3.68 µM) in data set [2] (aqueous with cosolvent or surfactant or cyclodextrin, vehicle 2); 311 µg/mL (≈ 441 µM) in data set [2] (aqueous with cosolvent or surfactant or cyclodextrin, vehicle 3); 361 µg/mL (≈ 512 µM) in data set [2] (aqueous with cosolvent or surfactant or cyclodextrin, vehicle 4); below 1 µg/mL in data set [2] (pH 4, aqueous buffer, vehicle 5).

Consider `COc1ccc(C[C@H]2NC(=O)/C=C/C[C@@H]([C@H](C)[C@@H](OC(C)=O)[C@@H](Cl)c3ccccc3)OC(=O)[C@H](CC(C)C)OC(=O)C(C)(C)CNC2=O)cc1Cl` [Compound 3, Cryptophycin 55 Acetate], for which, in data set [1] (setting [8]), the half-maximal inhibitory concentration (IC50) amounted to 83 nM.

For the molecule `COc1ccc(C[C@H]2NC(=O)/C=C/C[C@@H]([C@H](C)[C@@H](OC(=O)CCC(=O)O)[C@@H](Cl)c3ccccc3)OC(=O)[C@H](CC(C)C)OC(=O)C(C)(C)CNC2=O)cc1Cl` [Compound 4, Cryptophycin 55 Succinate], the IC50 in data set [1] (setting [8]) was found to be 31 nM.

`COc1ccc(C[C@H]2NC(=O)/C=C/C[C@@H]([C@H](C)[C@@H](OC(=O)Cc3ccccc3OP(=O)(O)O)[C@@H](Cl)c3ccccc3)OC(=O)[C@H](CC(C)C)OC(=O)C(C)(C)CNC2=O)cc1Cl` [Compound 6, Cryptophycin 55 (2′-Phosphatyl)phenylacetate di-Sodium Salt]: the 50% inhibitory concentration (IC50) in data set [1] (setting [8]) was determined as 3.7 nM.

Consider `C=C1[C@@H](C)[C@H]2[C@H](Cc3ccccc3)NC(=O)[C@]23OC(=O)/C=C/[C@H](O)CCC[C@@H](C)C/C=C/[C@H]3[C@@H]1O` [Cytochalasin B, cytochalasin B], for which the effect on microfilaments entry in data set [3] (TRITC-phalloidin staining) is recorded as “complete depolymerization of microfilaments”. Also, the “effect on distribution of microtubules or intermediate filaments” value in data set [3] (indirect immunofluorescence) is “did not affect”.

`CC(=O)O[C@H]1C(=O)[C@@]2(C)[C@H]([C@H](OC(=O)c3ccccc3)[C@]3(O)C[C@H](OC(=O)[C@H](O)[C@@H](NC(=O)c4ccccc4)c4ccccc4)C(C)=C1C3(C)C)[C@]1(OC(C)=O)CO[C@@H]1C[C@@H]2O` [Taxol, taxol] displayed an IC50 in the data set with SKVLB1 cells of 8000 nM. Besides, in the data set with A-10 cells [4] (10 μM taxol, compared with control cells), the “microtubule organization in taxol-treated cells” value was “extensively bundled”.

In turn, `CC[C@]1(O)C[C@@H]2CN(CCc3c([nH]c4ccccc34)[C@@](C(=O)OC)(c3cc4c(cc3OC)N(C)[C@H]3[C@@](O)(C(=O)OC)[C@H](OC(C)=O)[C@]5(CC)C=CCN6CC[C@]43[C@@H]65)C2)C1` [Vinblastine, vinblastine] gave an IC50 in the data set on SKVLB1 cells of 4200 nM. Further, the “microtubule depolymerization after taxol pretreatment” value in the data set with A-10 cells [4] (100 nM vinblastine after 3 hours pretreatment with 10 μM taxol) is recorded as “prevented microtubule depolymerization”. Moreover, the microtubule depolymerization entry in the data set with A-10 cells [4] (100 nM, 24 hours, non-pretreated cells) is on record as “complete depolymerization of microtubules”; in the data set on A-10 cells [5] (100 nM, 24 hr) it was “complete microtubule depolymerization”. For the same molecule, the “microtubule repolymerization 1 hour after removal of drug” value in the data set with A-10 cells [5] (100 nM for 24 hr, washed, drug-free medium 1 hour) is reported as “significant levels of microtubules”. Also, in the data set on A-10 cells [5] (100 nM for 24 hr, washed, drug-free medium 24 hours), the “microtubule repolymerization 24 hours after removal of drug” value is “complete morphological recovery”.

As for “Cryptophycin 55 (2′-phosphatyl)phenylacetate di-sodium Salt [7′]”, the IC50 in data set [1] (setting [6]) was 3.7 nM.

With “Cryptophycin 55 (D)-alaninate Hydrochloride Salt [30′]”, the IC50 in data set [1] (setting [6]) was determined as 30 nM.

In the case of Cryptophycin 55 Acetate [3′], the IC50 in data set [1] (setting [6]) was 83 nM.

“Cryptophycin 55 β-Alaninate Hydrochloride Salt [21′]”: the IC50 in data set [1] (setting [6]) amounted to 21 nM.

As for “Cryptophycin 55 γ-Aminobutyrate Hydrochloride Salt [25′]”, the IC50 in data set [1] (setting [6]) was determined as 230 nM.
